Assay results reported in patent publication US10835466B2, “Wrinkle ameliorating agent” (POLA CHEMICAL INDUSTRIES, INC., priority 2016, dated 2020).
Structures can show the parent of a compound that is named as a salt.

Test system: wrinkles of the outer corners of the eyes
Assay: Test of wrinkle improvement effect (skin replica shadow image analysis after 8 weeks of application)
Type: in vivo, women
Details: for Wrinkle improvement Improvement rate (%): applied to outer corners of the eyes twice a day for 8 weeks; for Wrinkle improvement Evaluation: twice a day for 8 weeks, class of the improvement rate
Description: The cosmetics (Examples 1-7, Comparative Example, and Reference Examples) according to Table 1 were prepared respectively in a conventional manner. With regard to each of the prepared cosmetics, the wrinkle improvement effect was evaluated by the following method. In other words, 45 women (40 to 60 years old) who were concerned about wrinkles of the outer corners of the eyes were divided into 9 groups of 5 persons. To each group, any one of the cosmetics of Examples 1 to 7, Comparative Example, and Reference Examples was handed over, which was applied by them to the outer corners of the eyes twice a day in the morning and evening continuously for 8 weeks. Before and after the test, an impression of the skin surface profile was taken in a conventional manner to produce the respective replicas. As the base material for the replica, that for a white replica not transmitting light was used. […] The distribution of brightness in the shadow image was determined, and the brightness equal to or higher than the median value of the brightness was transformed to the maximum brightness, and the brightness below the median value was transformed to the brightness 0 so that binarization is performed according to the borderline of the median value of the brightness. Then the area rate of the shadow portion (portion with the brightness 0) was measured and the wrinkle improvement rate was calculated based on the following expression. Wrinkle improvement rate (%)=(Area rate of shadow portion before test−Area rate of shadow portion after test)/(Area rate of shadow portion before test)×100

[1] = cosmetic of Table 1 with 1% by mass compound, average of group of 5 women (40 to 60 years old)
[2] = cosmetic of Table 1 with 1% by mass compound
[3] = cosmetic of Table 1 with 0.01% by mass compound (Examples 3 and 5), average of group of 5 women
[4] = cosmetic of Table 1 with 0.01% by mass compound (Examples 3 and 5)

| SMILES | Wrinkle improvement Improvement rate (%) [1] [%] | Wrinkle improvement Evaluation [2] | Wrinkle improvement Improvement rate (%) [3] [%] | Wrinkle improvement Evaluation [4] |
| --- | --- | --- | --- | --- |
| CCCCCCOC(=O)CCc1ccc(C(=O)C2CCC(CN)CC2)cc1 (centres unmarked) [Compound 2, hexyl 3-[p-(4-aminomethylcyclohexylcarbonyl)phenyl]propionate] | 8.2 | A (5% or more and less than 10%) |  |  |
| CCCCCC(=O)OCC(C)Cc1ccc(C(=O)C2CCC(CN)CC2)cc1 (centres unmarked) [Compound 5, 2-methyl-3-[p-(4-aminomethylcyclohexylcarbonyl)phenyl]propyl hexanoate] | 6.5 | A (5% or more and less than 10%) |  |  |
| NCC1CCC(C(=O)c2ccc(CCCO)cc2)CC1 (centres unmarked) [Compound 3, 3-[p-(4-aminomethylcyclohexylcarbonyl)phenyl]propanol] | 9.3 | A (5% or more and less than 10%) | 5.6 | A (5% or more and less than 10%) |
| NCC1CCC(C(=O)c2ccc(CCC(=O)O)cc2)CC1 (centres unmarked) [Hydrochloride salt of Compound 1, 3-[p-(4-aminomethylcyclohexylcarbonyl)phenyl]propionic acid] | 12.2 | AA (The improvement rate is 10% or more) |  |  |
| CCCCCC(=O)OCCCc1ccc(C(=O)C2CCC(CN)CC2)cc1 (centres unmarked) [Compound 4, 3-[p-(4-aminomethylcyclohexylcarbonyl)phenyl]propyl hexanoate] | 8.3 | A (5% or more and less than 10%) |  |  |
| CNC(=O)[C@H]1CC[C@H](CN)CC1.Cl [Tranexamic acid methylamide hydrochloride, reference compound] | 3.6 | B (less than 5%) |  |  |
| NC[C@H]1CC[C@H](C(=O)O)CC1 [Tranexamic acid, reference compound] | 3.2 | B (less than 5%) |  |  |
| NCC1CCC(C(=O)c2ccc(CCC(=O)O)cc2)CC1 (centres unmarked) [Compound 1, 3-[p-(4-aminomethylcyclohexylcarbonyl)phenyl]propionic acid] | 12 | AA (The improvement rate is 10% or more) | 6.3 | A (5% or more and less than 10%) |
